One series has as its target PD-L1 binding to PD-1 (Homo sapiens, UniProt Q9NZQ7). Briefly: competitive PD-1:PD-L1 inhibition assay (HTRF PD1/PD-L1 binding assay). How it is done: To modify DK221 for radiolabeling, a bifunctional chelator, e.g., NCS-MP-NODA, was conjugated to the free lysine amine to generate DK222. The NODA chelator was used for radiofluorination to produce [^18F]DK222, as well as a non-radioactive analog [^19F]DK222. (FIG. 1A, FIG. 10 and FIG. 11). A competitive PD-1:PD-L1 inhibition assay was performed to characterize binding affinity of the peptide analogs to PD-L1. […] [^18F]Fluoride-radiolabeling of peptides and small molecules by aluminum fluoride (AlF) method is gaining attention due to the ease of synthesis and the potential to retain the hydrophilicity of the binding moiety. McBride et al., 2010; Kumar et al., 2018. The radiolabeled analog, [^18F]DK222 was synthesized by AlF method in good radiochemical yields (34.85±1.7%, n=62), in vitro stability, and moderate specific activity of 284±56 mCi/μmol (10.51±2.07 GBq/μmol, n=25). […] (FIG. 12, FIG. 13 and FIG. 14).
(Time-resolved FRET reads energy transfer from a long-lived donor to a nearby acceptor.)

The test system of the next series is hPD-L1/CHO xenografts. The following applies: in vivo.
The conditions of series [1]: circulating half-life; cited from earlier work.
The target in another series is PD-L1 (Homo sapiens, UniProt Q9NZQ7). The following applies: cited from earlier work.
The next series has as its system LOX-IMVI tumors. Briefly: aPD-L1 mAb dosing studies, accessible PD-L1 levels by [^18F]DK222 uptake. The series is classed as in vivo, NSG mice. Conditions: for reduction in [^18F]DK222 uptake in tumors vs vehicle: 24 hour before tracer, ex vivo. On the procedure: To confirm the in vitro observations in vivo, NSG mice bearing LOX-IMVI tumors were treated with a single dose of 0.3 or 20 mg/kg of Atezolizumab, administered intravenously as a bolus, 24 hour before [^18F]DK222 injection (FIG. 5B, FIG. 5C and FIG. 5D). […] Importantly, there was a modest reduction in signal intensity when a low 0.3 mg/kg dose of Atezolizumab was used.
The aim of this experiment was to evaluate the potential of [^18F]DK222 to detect the heterogeneity in binding of different mAbs, thus proving in principle that it can be used to guide the choice between the multiple mAbs available for treatment. […] Separate groups of animals were injected with a single 1 mg/kg dose of (only) one of these mAbs, and after either 24 or 96 hours, each group was injected with [^18F]DK222, imaged, or sacrificed and the [^18F]DK222 signal was quantified (FIG. 6A). The difference in lower [^18F]DK222 signal, at 24 hours between any PD-L1 mAb vs Nivolumab constitutes the saturation binding of the PD-L1 mAb. On the other hand, the higher [^18F]DK222 signal at 96 hours versus that at 24 hours represents loss of the mAb from its binding site, making more PD-L1 accessible to [^18F]DK222. The experiment was repeated in two different tumor models: LOXIMVI and MDAMB231.
1.3.17 aPD-L1 mAb dosing studies. To determine the effect of antibody dose on accessible PD-L1 levels in the tumor, LOX-IMVI tumor-bearing mice were treated with a single intravenous bolus dose of Atezolizumab (0.3 or 20 mg/Kg) and 24 hours later mice were used for imaging (n=3-4) and biodistribution (n=6-8) studies.
Anti PD-1 antibody Nivolumab (1 mg/kg) and saline were used as controls. Mice treated for 24 h with therapeutic mAbs, or saline as a control, were injected with 200 μCi of [^18F]DK222 in 200 μL of saline intravenously, and PET images were acquired 1 hour after the injection of the radiotracer. Due to the many number of groups and mice involved, saline and Nivolumab-treated controls were included in every experiment, and data from multiple experiments were pooled. Study was repeated in MDAMB231 tumor-bearing mice with only biodistribution measurements.

Series [2] concerns PD-L1 levels in melanoma cells. Put plainly: effect of IFNγ treatment on PD-L1 levels by flow cytometry. The series is classed as cell-based, human. On the procedure: First, the effect of adaptive immune response on the PD-L1 expression in melanoma cells was investigated by assessing changes in PD-L1 levels induced by IFNγ treatment. LOX-IMVI, A375, and MeWO melanoma cells treated with IFNγ were analyzed for changes in PD-L1 levels.
1.3.8 Detection of PD-L1 expression by flow cytometry. Cells were evaluated for PD-L1 surface expression by direct staining of 2×10^5 cells in 100 μL PBS with Cy5-Atezolizumab, for 30 min at 4° C. Cy5-Atezolizumab was prepared as described previously. Kumar et al., 2019. Cells were then washed and analyzed for mean fluorescence intensity (MFI) by flow cytometry. Adherent cells were detached using enzyme-free cell dissociation buffer (Thermo Fisher Scientific, Waltham, Mass.). 1.3.9 In vitro binding assays with [^18F]DK222. In vitro binding of [^18F]DK222 to hPD-L1 MDAMB231, MeWo, A375, Sum149, and CHO cells was determined by incubating 1×10^6 cells with approximately […] of [^18F]DK222 in the presence, or absence, of 1 μM of DK222 or 60 nM mAbs for 30 min at 4° C. After incubation, cells were washed three times with ice cold PBS containing 0.1% Tween20 and counted on an automated gamma counter (1282 Compugamma CS, Pharmacia/LKBNuclear, Inc., Gaithersburg, Md.). […] All cell radioactivity uptake studies were performed in quadruplicate for each cell line and repeated three times.
Background: In flow cytometry, cells or beads pass a laser one at a time.

The next series relates to A375 melanoma xenografts. Briefly: aPD-1 mAb dosing study, [^18F]DK222 uptake in A375 tumors. The class given is in vivo. Conditions: huPBMC mice, single dose aPD-1 mAb 12 mg/kg, one week. On the procedure:
A humanized mouse model was used to quantify the differences in tumor PD-L1 levels as a measure of adaptive immune response to treatment with different aPD-1 mAbs. NSG mice humanized with PBMCs (huPBMC) bearing A375 melanoma xenografts were treated with a single dose of aPD-1 mAbs (12 mg/kg). Following one week of treatment, tumor PD-L1 levels were measured by [^18F]DK222-PET and by ex vivo counting 24 hours later (FIG. 4A). As controls, tumor-bearing huPBMC mice treated with saline and NSG mice treated with Pembrolizumab and Nivolumab were included.
1.3.14 aPD-1 mAb dosing studies. huPBMC mice acquired from JAX labs were implanted subcutaneously with 2×10^6 A375 cells in the rostral end. Seven days after cell inoculation (average tumor volume=80±15 mm^3), mice were randomized and treated with a single 12 mg/kg dose of Nivolumab or Pembrolizumab injected intravenously (n=9/group). huPBMC mice treated with saline (n=4-5/group). or NSG mice treated with 12 mg/kg dose of Nivolumab or Pembrolizumab were used as controls. Seven days following treatment, [^18F]DK222 PET scans were acquired on at least 3-5 mice per group. […]
1.3.15 Flow cytometry analysis. […] Cells were counted and 1×10^6 cells were resuspended in 100 μL Live/Dead aqua solution (ThermoFisher #L34965, 2 μL reconstituted with 2 mL PBS) in a 96 well plate. […]

Where a SMILES comes first, the peptide text is derived from it. Bridges are numbered along the chain shown (N, C = ends). [ ]: non-standard residue; d: D form. The star is where a group is joined. Trp(1-CH2COOH) = N[C@@H](Cc1cn(CC(=O)O)c2ccccc12)C(=O)O; X1 = O=C(O)CN1CCN(CC(=O)O)CCN(Cc2ccc(NC(=S)*)cc2)CC1; Hyp = O=C(O)[C@@H]1C[C@@H](O)CN1; NMeNle = CCCC[C@H](NC)C(=O)O; NMeA = CN[C@@H](C)C(=O)O

PD-L1, sequence (Q9NZQ7 19-290): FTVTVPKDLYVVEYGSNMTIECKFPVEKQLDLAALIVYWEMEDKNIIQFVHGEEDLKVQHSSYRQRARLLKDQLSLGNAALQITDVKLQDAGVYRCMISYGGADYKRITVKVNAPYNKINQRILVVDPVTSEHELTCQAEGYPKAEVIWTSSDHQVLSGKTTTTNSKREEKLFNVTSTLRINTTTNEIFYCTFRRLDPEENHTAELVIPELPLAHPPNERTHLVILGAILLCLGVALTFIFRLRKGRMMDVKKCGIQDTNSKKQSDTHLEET
PD-L1 binding to PD-1, sequence (Q9NZQ7 19-238 limits assumed): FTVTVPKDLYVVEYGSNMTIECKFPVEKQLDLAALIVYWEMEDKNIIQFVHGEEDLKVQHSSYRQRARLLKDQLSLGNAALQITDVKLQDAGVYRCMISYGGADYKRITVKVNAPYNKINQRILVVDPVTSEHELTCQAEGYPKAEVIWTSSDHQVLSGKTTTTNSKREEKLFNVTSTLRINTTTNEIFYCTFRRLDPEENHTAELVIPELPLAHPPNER

On to `CCCC[C@H]1C(=O)N(C)[C@@H](CCCC)C(=O)N[C@@H](CCCCNC(=S)Nc2ccc(CN3CCN(CC(=O)O)CCN(CC(=O)O)CC3)cc2)C(=O)N[C@H](C(=O)NCC(N)=O)CSCC(=O)N[C@@H](Cc2ccc(O)cc2)C(=O)N(C)[C@@H](C)C(=O)N[C@@H](CC(N)=O)C(=O)N2CCC[C@H]2C(=O)N[C@@H](Cc2cnc[nH]2)C(=O)N[C@@H](CCC(=O)O)C(=O)N2C[C@H](O)C[C@H]2C(=O)N[C@@H](Cc2c[nH]c3ccccc23)C(=O)N[C@@H](CO)C(=O)N[C@@H](Cc2cn(CC(=O)O)c3ccccc23)C(=O)N1C` [DK222] ({CH2CO}-Y[NMeA]NPHE[Hyp]WS[Trp(1-CH2COOH)][NMeNle][NMeNle]K(X1)CG-NH2; thioether N-14), for which, on PD-L1 binding to PD-1, the IC50 (in general, the concentration that gives 50% inhibition) was 28 nM. Moreover, the “inhibit PD1:PD-L1 interaction” value at PD-L1 binding to PD-1 (protein-based assay) was “at nanomolar concentrations”.

For `CCCC[C@H]1C(=O)N(C)[C@@H](CCCC)C(=O)N[C@@H](CCCCNC(=O)c2ccc([18F])nc2)C(=O)N[C@H](C(=O)NCC(N)=O)CSCC(=O)N[C@@H](Cc2ccc(O)cc2)C(=O)N(C)[C@@H](C)C(=O)N[C@@H](CC(N)=O)C(=O)N2CCC[C@H]2C(=O)N[C@@H](Cc2cnc[nH]2)C(=O)N[C@@H](CCC(=O)O)C(=O)N2C[C@H](O)C[C@H]2C(=O)N[C@@H](Cc2c[nH]c3ccccc23)C(=O)N[C@@H](CO)C(=O)N[C@@H](Cc2cn(CC(=O)O)c3ccccc23)C(=O)N1C` [[^18F]DK221-Py], the PET image contrast result with hPD-L1/CHO xenografts was “poor image contrast”.

For the compound Atezolizumab: aPD-L1 mAb, isotype IgG1κ, the t1/2 in series [1] is reported as 27 days. In the series with PD-L1, the Kd (as a rule, the concentration at which binding is half-saturated) is 0.4 nM. Further, the “reduction in [^18F]DK222 uptake in tumors vs vehicle” value was 32% with LOX-IMVI tumors (0.3 mg/kg single i.v. dose) and 89% in the series with LOX-IMVI tumors (20 mg/kg single i.v. dose).

As to Avelumab: aPD-L1 mAb, IgG1λ, the t1/2 in series [1] is listed as 6.1 days.

For Durvalumab: aPD-L1 mAb, in series [1], the t1/2 was 18 days. Also, the Kd with PD-L1 is 0.022 nM. The “accessible PD-L1 levels reduced” value in the series with LOX-IMVI tumors (1 mg/kg mAb, LOX-IMVI tumors, 24 h and 96 h) is listed as not below 70%.

Turning to “IFNγ: cytokine used to treat melanoma cells to induce PD-L1”, the “increase in PD-L1 levels” value in series [2] (A375 cells) is on record as “four-fold”; in series [2] (LOX-IMVI cells), “two”. Besides, the “change in PD-L1 levels” value in series [2] (MeWo cells) is given as “No differences”.

In the case of “Nivolumab: aPD-1 mAb [reference compound]”, the “increase in median [^18F]DK222 uptake compared to NSG mice” value in the series with A375 melanoma xenografts is given as 148%. For the same compound, the “mean LOX-IMVI tumor [^18F]DK222 uptake” value in the series with LOX-IMVI tumors (1 mg/kg mAb, 24 hours) is reported as “approximately 20 % ID/g”.

Turning to “Pembrolizumab: aPD-1 mAb [reference compound]”, in the series on A375 melanoma xenografts, the “increase in median [^18F]DK222 uptake compared to NSG mice” value is 85%.

(Values after patent US20230271923A1, “IMAGING AND TARGETING PROGRAMMED DEATH LIGAND-1 (PD-LI) EXPRESSION” (The Johns Hopkins University, priority 2020, published 2023).)
